Test results from patent US9023407B2, “Plant extract for treating diabetes and process for making same” (Development Center for Biotechnology, priority 2012, dated 2015).
Marks after values point to notes of the source that are not given here.

Columns and labels:
Sprague-Dawley rats = assay: Glucose tolerance test in normal rats; format: in vivo, rat; conditions: 10 mg/kg
Description: Twenty-six (26) Sprague-Dawley rats were divided into four groups: the placebo group (7 rats, to be administered with 10% Tween 20), the positive control group (7 rats, to be administered with glibenclamide), the 250 mg/kg HC group (6 rats, to be administered with 250 mg/kg ethanol extract of leaves and pseudostems of Hedychium coronarium Koening ), and the 750 mg/kg HC group (6 rats, to be administered with 750 mg/kg ethanol extract of the leaves and pseudostems of Hedychium coronarium Koening ). The rats were fasted for 7 hours and then administered with 250 mg/kg ethanol extract of leaves and pseudostems of Hedychium coronarium Koening (the 250 mg/kg HC group), 750 mg/kg ethanol extract of leaves and pseudostems of Hedychium coronarium Koening (the 750 mg/kg HC group), 10 mg/kg glibenclamide (the positive control group), or 10% Tween 20 (the placebo/control group). After 30 minutes, each rat was administered with glucose at a total amount of 5 g/kg, orally (2.5 g/kg) and subcutaneously (2.5 g/kg). Blood was drawn from each rat at the intervals of 0, 30, 60, 90 and 120 minutes for the measurement of glucose (mg/DL). […]
The test rats and procedure were as those in Example 1. However, in this example, 24 Sprague-Dawley rats were divided into four groups: the placebo group (6 rats, to be administered with water), the positive control group (6 rats, to be administered with 10 mg/kg glibenclamide), the 0.4 g/kg HC group (6 rats, to be administered with 0.4 g/kg water-ethanol extract of leaves and pseudostems of Hedychium coronarium Koening ), and the 0.8 g/kg HC group (6 rats, to be administered with 0.8 g/kg water-ethanol extract of leaves and pseudostems of Hedychium coronarium Koening ). After 30 minutes, each rat was administered with glucose at a total amount of 5 g/kg, orally (2.5 g/kg) and subcutaneously (2.5 g/kg). Blood was drawn from each animal at 30-minute intervals for the measurement of glucose (mg/DL). […]

[1] = tested on: Sprague-Dawley rats with type I diabetes; assay: Insulin resistance test in rats with type I diabetes; format: in vivo, rat; conditions: 0.3 U/kg insulin subcutaneous
Description: Eighteen (18) Sprague-Dawley rats with type I diabetes were divided into three groups: the control group (6 rats, to be administered with 10% Tween 20), the insulin group (6 rats, to be subcutaneously administered with 0.3 U/kg insulin) and the insulin plus HC group (6 rats, to be subcutaneously administered with 0.3 U/kg insulin and orally administered with 1.0 g/kg of ethanol extract of leaves and pseudostems of Hedychium coronarium Koening ). The rats were fasted for 4 hours and then administered with 10% Tween 20 (the control group), 0.3 U/kg insulin (the insulin group) or 0.3 U/kg insulin plus 1.0 g/Kg of ethanol extract of leaves and pseudostems of Hedychium coronarium Koening (the insulin plus HC group). After administration of 2.5 g/kg glucose, blood was drawn from each animal at 30-minute intervals for the measurement of glucose (mg/DL).

Compound	Concentration of blood glucose (Sprague-Dawley rats; Example 1, 0 min) [mg/dL]	Concentration of blood glucose (Sprague-Dawley rats; Example 1, 30 min)	Concentration of blood glucose (Sprague-Dawley rats; Example 1, 60 min)	Concentration of blood glucose (Sprague-Dawley rats; Example 1, 90 min)	Concentration of blood glucose (Sprague-Dawley rats; Example 1, 120 min)	Concentration of blood glucose (Sprague-Dawley rats; Example 9, 0 min) [mg/dL]	Concentration of blood glucose (Sprague-Dawley rats; Example 9, 30 min)	Concentration of blood glucose (Sprague-Dawley rats; Example 9, 60 min)	Concentration of blood glucose (Sprague-Dawley rats; Example 9, 90 min)	Concentration of blood glucose (Sprague-Dawley rats; Example 9, 120 min)	Concentration of blood glucose ([1]; 0 min) [mg/dL]	Concentration of blood glucose ([1]; 30 min)	Concentration of blood glucose ([1]; 60 min)	Concentration of blood glucose ([1]; 90 min)
COc1ccc(Cl)cc1C(=O)NCCc1ccc(S(=O)(=O)NC(=O)NC2CCCCC2)cc1 [Glibenclamide, glibenclamide]	99 ± 2.7	150.7 +/− 15.2** mg/DL	121.4 +/− 10.2** mg/DL	101.6 +/− 6.7** mg/DL	83.4 +/− 2.5*** mg/DL	94.3 ± 3.8	173.8 +/− 14.5*** mg/DL	101.8 +/− 8.4*** mg/DL	82.7 +/− 8.1*** mg/DL	68.8 +/− 5.9*** mg/DL				
Insulin: insulin, subcutaneously administered at 0.3 U/kg											522.5 ± 27.1	695.8 +/− 18.7** mg/DL	593.3 +/− 16.2* mg/DL	486.2 +/− 9.6* mg/DL
